Data as given in US20100105694A1, “SUBSTITUTED PYRAZINONE DERIVATIVES FOR USE AS A MEDICINE” (priority 2006, published 2010).

Experiments:
5HT-Transporter = target: T1, 5HT-Transporter (Homo sapiens, UniProt P31645); assay: Binding experiment for the 5HT-transporter ([3H]paroxetine, human platelet membranes); conditions: [3H]paroxetine 0.5 nM, read-out: h-5HTT pIC50 (converted)
T1 construct: Human platelet membranes (Oceanix Biosciences Corporation, Hanover, Md., USA) were thawed; tissue Oceanix Biosciences Corporation; host or cells: human platelet membranes
Description: (§1) The interaction of a compound of Formula (I) with α2C-adrenoceptor receptors was assessed in in vitro radioligand binding experiments. In general, a low concentration of a radioligand with a high binding affinity for a particular receptor or transporter is incubated with a sample of a tissue preparation enriched in a particular receptor or transporter or with a preparation of cells expressing cloned human receptors in a buffered medium. During the incubation, the radioligand binds to the receptor or transporter. When equilibrium of binding is reached, the receptor bound radioactivity is separated from the non-bound radioactivity, and the receptor- or transporter-bound activity is counted. The interaction of the test compounds with the receptor is assessed in competition binding experiments. Various concentrations of the test compound are added to the incubation mixture containing the receptor- or transporter preparation and the radioligand. The test compound in proportion to its binding affinity and its concentration inhibits binding of the radioligand. The radioligand used for hα2A and hα2C receptor binding was [^3H]-raulwolscine.
Human platelet membranes (Oceanix Biosciences Corporation, Hanover, Md., USA) were thawed, diluted in buffer (Tris-HCl 50 mM, 120 mM NaCl and 5 mM KCl) and quickly (max 3 s) homogenised with an Ultraturrax homogenizer. […] Incubation was stopped by rapid filtration of the incubation mixture over GF/B filters, pre-wetted with 0.1% polyethyleneamine, using a Filtermate196 harvester (Packard, Meriden, Conn.). Filters were rinsed extensively with ice-cold buffer and radioactivity on the filters was counted in a Topcount liquid scintillation counter (Packard, Meriden, Conn.). Data were expressed as cpm. Imipramine (at 1 μM final concentration) was used to determine the non-specific binding.
(§2) Data from assays in the presence of compound were calculated as a percentage of total binding measured in the absence of test compound. Inhibition curves, plotting percent of total binding versus the log value of the concentration of the test compound, were automatically generated, and sigmoidal inhibition curves were fitted using non-linear regression. The pIC50 values of test compounds were derived from individual curves.

[1] = target: T2, human adrenergic-α2C receptor (Homo sapiens, UniProt P18825); assay: Radioligand binding experiment for α2C-adrenoceptor ([3H]raulwolscine, CHO cell membranes); conditions: [3H]raulwolscine 1 nM, membranes of CHO cells transfected with human α2C receptor; read-out: h-α2C pIC50 (converted)
T2 construct: expressed in transfected cells; host or cells: CHO cells, stably transfected; membranes
T2 sequence (P18825 1-462): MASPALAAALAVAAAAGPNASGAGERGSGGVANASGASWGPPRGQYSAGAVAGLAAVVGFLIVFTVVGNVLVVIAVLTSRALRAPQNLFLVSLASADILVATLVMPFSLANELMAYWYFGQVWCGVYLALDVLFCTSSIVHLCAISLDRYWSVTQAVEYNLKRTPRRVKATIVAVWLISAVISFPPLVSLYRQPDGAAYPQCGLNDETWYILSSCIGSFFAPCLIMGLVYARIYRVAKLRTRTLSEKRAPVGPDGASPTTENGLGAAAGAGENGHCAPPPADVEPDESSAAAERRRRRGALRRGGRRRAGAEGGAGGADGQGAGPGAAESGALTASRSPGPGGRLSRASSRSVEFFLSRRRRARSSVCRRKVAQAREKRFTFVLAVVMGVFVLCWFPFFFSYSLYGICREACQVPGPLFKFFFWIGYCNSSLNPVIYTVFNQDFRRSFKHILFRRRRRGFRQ
Description: as §1
(§3) CHO cells, stabile transfected with human adrenergic-α2A and α2C receptor cDNA, were cultured in Dulbecco's Modified Eagle's Medium (DMEM)/Nutrient mixture Ham's F12 (ratio 1:1) (Gibco, Gent-Belgium) supplemented with 10% heat inactivated fetal calf serum (Life Technologies, Merelbeke-Belgium) and antibiotics (100 IU/ml penicillin G, 100 μg/ml streptomycin sulphate, 110 μg/ml pyruvic acid and 100 μg/ml L-glutamine). One day before collection, cells were induced with 5 mM sodiumbutyrate. Upon 80-90% of confluence, cells were scraped in phosphate buffered saline without Ca^2+ and Mg^2+ and collected by centrifugation at 1500×g for 10 minutes. The cells were homogenised in Tris-HCl 50 mM using an Ultraturrax homogenizer and centrifuged for 10 minutes at 23,500×g. The pellet was washed once by resuspension and rehomogenization and the final pellet was resuspended in Tris-HCl, divided in 1 ml aliquots and stored at −70° C.
(§4) Membranes were thawed and re-homogenized in incubation buffer (glycylglycine 25 mM, pH 8.0). […] Filters were rinsed extensively with ice-cold rinsing buffer (Tris-HCl 50 mM pH 7.4). Filter-bound radioactivity was determined by scintillation counting in a Topcount (Packard, Meriden, Conn.) and results were expressed as counts per minute (cpm). Non-specific binding was determined in the presence of 1 μM oxymetazoline for the hα2A receptor and 1 μM spiroxatrine for hα2C receptors.
as §2

[2] = target: T3, human adrenergic-α2A receptor (Homo sapiens, UniProt P08913); assay: Radioligand binding experiment for hα2A receptor ([3H]raulwolscine, CHO cell membranes); conditions: [3H]raulwolscine 1 nM, membranes of CHO cells transfected with human α2A receptor; read-out: h-α2A pIC50 (converted)
T3 construct: expressed in transfected cells; host or cells: CHO cells, stably transfected; membranes
T3 sequence (P08913 1-465): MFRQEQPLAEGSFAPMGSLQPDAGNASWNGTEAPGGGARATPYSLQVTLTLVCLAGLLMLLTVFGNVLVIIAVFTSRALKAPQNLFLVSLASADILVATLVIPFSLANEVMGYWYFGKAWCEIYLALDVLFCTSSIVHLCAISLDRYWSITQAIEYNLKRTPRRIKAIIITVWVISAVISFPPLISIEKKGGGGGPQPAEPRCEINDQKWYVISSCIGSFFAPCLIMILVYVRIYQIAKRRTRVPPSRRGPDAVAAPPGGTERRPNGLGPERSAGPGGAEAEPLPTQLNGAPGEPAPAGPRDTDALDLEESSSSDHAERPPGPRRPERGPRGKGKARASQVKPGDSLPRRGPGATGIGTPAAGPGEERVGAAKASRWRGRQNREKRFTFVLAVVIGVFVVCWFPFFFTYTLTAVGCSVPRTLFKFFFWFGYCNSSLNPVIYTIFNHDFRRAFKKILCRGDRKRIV
Description: as §1, §3, §4, §2

T1 sequence (P31645 whole entry): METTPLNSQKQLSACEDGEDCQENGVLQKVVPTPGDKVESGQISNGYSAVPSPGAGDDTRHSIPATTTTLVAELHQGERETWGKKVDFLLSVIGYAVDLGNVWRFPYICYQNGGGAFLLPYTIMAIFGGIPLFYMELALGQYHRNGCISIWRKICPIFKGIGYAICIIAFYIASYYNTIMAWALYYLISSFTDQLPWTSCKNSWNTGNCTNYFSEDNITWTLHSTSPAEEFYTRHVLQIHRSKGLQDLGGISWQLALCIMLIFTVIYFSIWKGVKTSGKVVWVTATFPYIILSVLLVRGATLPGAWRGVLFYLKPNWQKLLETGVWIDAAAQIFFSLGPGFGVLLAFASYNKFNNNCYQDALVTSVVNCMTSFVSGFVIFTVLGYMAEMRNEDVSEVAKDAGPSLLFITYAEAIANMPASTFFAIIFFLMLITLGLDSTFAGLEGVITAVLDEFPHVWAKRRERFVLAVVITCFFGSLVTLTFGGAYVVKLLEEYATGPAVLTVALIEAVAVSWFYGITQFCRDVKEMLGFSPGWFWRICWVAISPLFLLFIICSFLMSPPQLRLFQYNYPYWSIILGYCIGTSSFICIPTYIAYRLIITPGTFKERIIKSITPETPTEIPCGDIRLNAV

Row | SMILES | IC50 (5HT-Transporter) | IC50 [1] | IC50 [2]
1 | CC(C)(C)OC(=O)NCc1ccc(Cn2ccnc(NC3CCN(CC(c4ccccc4)c4ccccc4)CC3)c2=O)cc1 [Compound 9-4] | > 10 µM | 631 nM | 3160 nM
2 | O=c1c(NC2CCN(CC(c3ccccc3)c3ccccc3)CC2)nccn1CCN1CCCCC1 [Compound 9-5] | > 10 µM | 794 nM | 2510 nM
3 | O=C1c2ccccc2C(=O)N1CCCn1ccnc(NC2CCN(CC(c3ccccc3)c3ccccc3)CC2)c1=O [Compound 9-6] | 6.31 µM | 398 nM | 1260 nM
4 | O=c1c(NC2CCN(CC(c3ccccc3)c3ccccc3)CC2)nccn1Cc1ccccc1Br [Compound 9-7] | > 10 µM | 631 nM | 1000 nM
5 | O=c1c(NC2CCN(CC(c3ccccc3)c3ccccc3)CC2)nccn1Cc1cccc(Br)c1 [Compound 9-8] | 5.01 µM | 631 nM | 1260 nM
6 | O=c1c(NC2CCN(CC(c3ccccc3)c3ccccc3)CC2)nccn1Cc1ccc(Br)cc1 [Compound 9-9] | 6.31 µM | 501 nM | 1260 nM
7 | O=C(Cn1ccnc(NC2CCN(CC(c3ccccc3)c3ccccc3)CC2)c1=O)c1ccccc1 [Compound 9-10] | > 10 µM | 631 nM | 2510 nM
8 | NCc1ccc(Cn2ccnc(N3CCN(CCc4ccccc4)CC3)c2=O)cc1 [Compound 10-1] | > 10 µM | 631 nM | 794 nM
9 | CC(C)(C)OC(=O)NCc1ccc(Cn2ccnc(N3CCN(Cc4ccccc4)CC3)c2=O)cc1 [Compound 10-2] | > 10 µM | 316 nM | 251 nM
10 | C=CCn1ccnc(N2CCN(CCc3ccccc3)CC2)c1=O [Compound 10-4] | > 10 µM | 631 nM | 2510 nM
11 | O=c1c(N2CCN(Cc3ccccc3)CC2)nccn1C/C=C/c1ccccc1 [Compound 10-5] | > 10 µM | 631 nM | 316 nM
12 | O=c1c(N2CCN(CCc3ccccc3)CC2)nccn1C/C=C/c1ccccc1 [Compound 10-6] | 5.01 µM | 501 nM | 1000 nM
13 | O=c1c(N2CCN(CCc3ccccc3)CC2)nccn1Cc1ccc(-c2ccccc2)cc1 [Compound 10-8] | 5.01 µM | 631 nM | 794 nM
14 | O=c1c(N2CCN(CCc3ccccc3)CC2)nccn1Cc1ccc2ccccc2c1 [Compound 10-10] | 3.16 µM | 316 nM | 501 nM
15 | O=c1c(N2CCN(CCc3ccccc3)CC2)nccn1Cc1ccc(Cl)s1 [Compound 10-11] | > 10 µM | 200 nM | 794 nM
16 | COc1ccc(-c2nnc(Cn3ccnc(N4CCN(CCc5ccccc5)CC4)c3=O)o2)cc1 [Compound 10-12] | > 10 µM | 501 nM | 1260 nM
17 | NCc1ccc(Cn2ccnc(NC3CCN(Cc4ccc(OCc5ccccc5)cc4)CC3)c2=O)cc1 [Compound 11-1] | 2 µM | 631 nM | 251 nM
18 | CN(C)CCCn1ccnc(NC2CCN(Cc3ccc(OCc4ccccc4)cc3)CC2)c1=O [Compound 11-2] | > 10 µM | 794 nM | 794 nM
19 | CC(C)(C)OC(=O)NCCCn1ccnc(NC2CCN(Cc3ccc(OCc4ccccc4)cc3)CC2)c1=O [Compound 11-3] | > 10 µM | 631 nM | 794 nM
20 | O=c1c(NC2CCN(Cc3ccc(OCc4ccccc4)cc3)CC2)nccn1CCN1CCCCC1 [Compound 11-4] | > 10 µM | 794 nM | 1580 nM
21 | O=C1c2ccccc2C(=O)N1CCCn1ccnc(NC2CCN(Cc3ccc(OCc4ccccc4)cc3)CC2)c1=O [Compound 11-5] | 3.16 µM | 251 nM | 794 nM
22 | O=c1c(NC2CCN(Cc3ccc(OCc4ccccc4)cc3)CC2)nccn1Cc1cccc(Br)c1 [Compound 11-6] | 1.58 µM | 794 nM | 631 nM
23 | O=c1c(NC2CCN(Cc3ccc(OCc4ccccc4)cc3)CC2)nccn1Cc1ccc(Br)cc1 [Compound 11-7] | 1.58 µM | 631 nM | 631 nM
